B1: Interferon-gamma (protein, listed as Homo sapiens)
chain: MKYTSYILAFQLCIVLGSLGCYCQDPYVKEAENLKKYFNAGHSDVADNGTLFLGILKNWKEESDRKIMQSQIVSFYFKLFKNFKDDQSIQKSVETIKEDMNVKFFNSNKKKRDDFEKLTNYSVTDLNVQRKAIHELIQVMAELSPAAKTGKRKRSQMLFRGRRASQ

Experiments:
[1] = test system: OS from cLTP in hippocampal slice cultures; assay: OS / reactive oxygen species generated from chemical long-term potentiation (cLTP) in slice cultures; assay type: cell-based, rat; settings: 3 days treatment (IFN-γ 500 U/mL; IL-11; IGF-1), compared to shams
Method: This beneficial effect of low-level IFN-γ is supported by results from rats. In rats, enrichment, which occurs with hippocampal learning, led to a significant elevation in hippocampal T-cells, IFN-γ and MBP.
Experiments were performed in rat hippocampal slices cultures and SD induced as previously described (Pusic et al., 2011). Results were derived from n≥3-6/group. […] This is consistent with the neural activity increase seen after SD, which mimics the hyperexcitability evident in migraine patients.
This prompted the inventors to examine whether insulin could reduce SD susceptibility by increasing CA3 pyramidal neuron bursting. The inventors induced SD trans-synaptically in rat HSC using electrical stimuli (100 μs pulses @ 10 Hz for 1 s) ranging from 1 to 10,000 nC in order to determine SD threshold in sham and experimental groups (Pusic et al., 2011). Results were based on n≥3-6/group. […] This insulin dose approximates the pharmacological levels seen in humans treated with nasal insulin. […] The inventors hypothesized that the effect of insulin occurred through IGF-1 receptor cross-talk.
The inventors use a well-accepted method for inducing cLTP in slice cultures (Kraig et al., 2010; Otmakhov et al., 2004a; Otmakhov et al., 2004b; Kopec et al., 2006). The protocol consists of raising cAMP levels and increasing synaptic activity using rolipram/forskolin applied in a Mg^2+-free Ringer's solution (36° C.) for 5 min, then allowing slices to recover in normal media.

[2] = test system: SD in neocortex and hippocampus of anesthetized rat; assay: SD threshold in vivo (0.5 M KCl injection) after nasal administration; settings: control 1-8 nL
Method: Images show experimental setups for nasal administration and testing. (FIG. 7A) Nasal injection setup showing heat lamp and thermo-regulator that maintains temperature at 37° C. plus nose cone used to deliver isoflurane anesthesia. (FIG. 7B) Operator is shown administering nasal IGF-1 solution, which is performed in a fume hood to adequately vent isoflurane from nose cone. (FIG. 7C) Image illustrates standard electrophysiology setup. Anesthetized animal is placed into a standard electrophysiology holder and anesthesia maintained by a nose cone delivering 3% isoflurane in oxygen. Arterial oxygen saturation is monitored with a pulse-oximeter. Animals are warmed to 37.5° C. with a heating plate. SD is induced by progressively injecting larger volumes of 0.5 M KCl from an 8 μm diameter microelectrode. SD is registered with a second microelectrode used for DC recordings placed more caudally. After SD is evoked by a given injection pulse, the stimulating electrode is withdrawn and a volume re-injected under mineral oil. The diameter of the resultant KCl injection sphere is then measured off line using a compound microscope and the injection volume calculated. For example, in the above whole animal experiments it took 1-8 nL of 0.5 M KCl to evoke SD in control brain regions while after acute IGF-1 this amount rose to 67-109 nL. A day after IGF-1 treatment the volume needed to evoked SD was 34-48 nL. IFN-γ treatment required 338 nL of 0.5 M KCl a day after treatment and IL-11 required 67-200 nL.
Rats (FIGS. 6 and 7) are anesthetized with inhalational isoflurane and kept warm. While anesthetized, animals are placed in a supine position and 50 μL of sterile drug (i.e., IFN-γ, IGF-1, or IL-11) solution [or sterile saline vehicle (sham control)] is administered nasally by delivering 5 μL alternating between the left and right naris every 2 min over 20 minutes. Animals are given nasal drug treatments daily at the same time for 7 days before subsequent experiments. Doses for all 3 agents begin with the effective doses noted in our work using slice cultures (1×), then include others (0.1× and 10×). The inventors base this strategy on the fact that the effective culture dose for IGF-1 (40 ng/mL) closely approximates the dose used in vivo (143 μg/kg).
This approach was applied to measurement of SD threshold (FIG. 10) after treatment (FIG. 7) with nasally administered IGF-1 (150 μg), IL-11 (1 μg), IFN-γ (50,000 units), and insulin (20 μg). […] Resistance against SD was always greater in hippocampus compared to neocortex (n=4, controls; n=3, acutely after IGF-1; n=6, one day after IGF-1; n=6, one day after IL-11; n=6, one day after IFN-γ; and n=3, acutely after insulin).
Nasal administration followed by SD threshold evaluation in vivo. Vehicle or human recombinant IGF-1 (150 μg) is administered intranasally. SD threshold is established by injection of nanoliter volumes of 0.5 M KCl into neocortex or hippocampus (−2.0 mm from Bregma and 1.5 mm lateral from midline at either 750 μm or 2,800 μm into brain, respectively) using a thin-walled glass pipette and Picospritzer. Once a threshold is established, it is confirmed two more times, with an exemplary record from a vehicle-sham animal shown below. […] The diameter of the injected sphere is then measured using a compound microscope and used to calculate the injected volume, then moles of potassium. […]

[3] = a day after nasal treatment (IGF-1 150 μg; IL-11 1 μg; IFN-γ 50,000 units)

Molecule | OS / reactive oxygen species generated from cLTP [1] | volume of 0.5 M KCl needed to evoke SD [2, 3] [nL] | volume of 0.5 M KCl needed to evoke SD ([2]; acutely after nasal treatment (IGF-1 150 μg; insulin 20 μg)) [nL]
Insulin-like growth factor 1 [IGF-1] | significant reduction in OS from cLTP | 34 to 48 | 67 to 109
B1 | significantly reduced reactive oxygen species | 338 | –

Source: US10391150B2, “Treatments for migraine and related disorders” (The University of Chicago, priority 2011, dated 2019)
